Reference: US20230293517A1, “ANTAGONIST COMPOUNDS” (AdoRx Therapeutics Limited, priority 2020, published 2023)

What was measured:
[1] = biological target: human Adenosine A2a receptor (Homo sapiens (Human), UniProt P29274); test: Adenosine receptor TR-FRET binding assay (A2a); conditions: inhibition of binding of 100 nM CA200645, CHO cell membranes
Procedure, shortened: (§1)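 CHO cell membranes carrying terbium-tagged human A1, A2a, A2b or A3 receptors were incubated 2 h at room temperature with compound and CA200645 tracer (A2b 30 nM; others 100 nM). Specific binding from time-resolved FRET ratios, minus 10 μM XAC background; IC50 converted to Ki (Cheng–Prusoff).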

[2] = biological target: human Adenosine A3 receptor (Homo sapiens (Human), UniProt P0DMS8); test: Adenosine receptor TR-FRET binding assay (A3); conditions: inhibition of binding of 100 nM CA200645, CHO cell membranes
Procedure, shortened: as §1

human PBMCs = test: CD3/CD28 stimulated IL-2 release NECA reversal assay in human PBMCs; type: cell-based; conditions: PBMC, 1 uM NECA, 24 hours, IL-2 in culture supernatant
Procedure, shortened: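 PBMCs from citrated healthy-donor blood plated at 50,000 cells/well on 1 ug/ml CD3 antibody with 1 ug/ml CD28 antibody, 1 uM NECA and 0.003-10 μM antagonist (final), 24 h at 37° C. Supernatant IL-2 measured by MSD immunoassay; % inhibition set against no-NECA control wells as 100%.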

[3] = system: CD8+T cells in human whole blood; test: Measurement of pCREB in CD8+T cells in human whole blood; type: cell-based; conditions: 3 μM NECA, rolipram
Procedure, shortened: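 Heparinised human whole blood pre-incubated 20 min at 37 °C with serially diluted A2a antagonists plus rolipram, then stimulated 60 min with 3 μM NECA (final). After fixation and red-cell lysis, white cells were permeabilized and stained for phospho-CREB and CD8; pCREB in CD8+ T cells measured by flow cytometry.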

[4] = biological target: human Adenosine A2b receptor (Homo sapiens (Human), UniProt P29275); test: Adenosine receptor TR-FRET binding assay (A2b); conditions: TR-FRET, inhibition of binding of 30 nM CA200645, CHO cell membranes
Procedure, shortened: as §1

[5] = system: immature monocyte-derived dendritic cells (MoDC); test: MoDC pCREB assay; type: cell-based, human; conditions: Homo sapiens, Dendritic cell; pCREB in immature MoDC, 1 μM NECA, rolipram
Experimental: Monocytes are isolated from human whole blood using CD14 microbeads (Miltenyi Biotec 130-050-201) and differentiated to immature monocyte-derived dendritic cells (MoDC) by culture for 5 days in Mo-DC Differentiation Medium (Miltenyi Biotec 130-094-812). MoDCs are seeded into fresh medium into U bottomed 96 well culture plates and pre-incubated at 37° C. with serial dilutions of A2A/B antagonists for 15 min. At the same time the cells are co-incubated with the phosphodiesterase inhibitor rolipram (final concentration of 20 µM) to amplify the subsequent pCREB response. Adenosine receptor agonist NECA is then added at 1 μM final concentration, leading to an increase in CREB phosphorylation. Following a 45 min incubation at 37° C., the cells are fixed, permeabilized and stained with directly conjugated fluorescent antibodies to phospho-CREB (Alexa Fluor 488), CD209 (PerCP-Cy5.5) and CD86 (APC). Samples are analysed by FACS to measure fluorescence in corresponding channels, and also forward and Side scatter. The population of CD209+/CD86− low cells corresponding to immature dendritic cells is gated for analysis of pCREB levels.
Approximately 5% of the analysed cells are positive for detection of pCREB in the absence of agonist stimulation, representing the background signalling of all pathways upstream of CREB. Following NECA stimulation this is increased to ˜80% pCREB+ve, and this increase is essentially fully reversible by A2B or dual A2A/B antagonists.
IC50 is represented as the point of inflection of a sigmoidal curve

[6] = biological target: human Adenosine A1 receptor (Homo sapiens (Human), UniProt P30542); test: Adenosine receptor TR-FRET binding assay (A1); conditions: inhibition of binding of 100 nM CA200645, CHO cell membranes
Procedure, shortened: as §1

Sequence of human Adenosine A1 receptor (P30542 whole entry): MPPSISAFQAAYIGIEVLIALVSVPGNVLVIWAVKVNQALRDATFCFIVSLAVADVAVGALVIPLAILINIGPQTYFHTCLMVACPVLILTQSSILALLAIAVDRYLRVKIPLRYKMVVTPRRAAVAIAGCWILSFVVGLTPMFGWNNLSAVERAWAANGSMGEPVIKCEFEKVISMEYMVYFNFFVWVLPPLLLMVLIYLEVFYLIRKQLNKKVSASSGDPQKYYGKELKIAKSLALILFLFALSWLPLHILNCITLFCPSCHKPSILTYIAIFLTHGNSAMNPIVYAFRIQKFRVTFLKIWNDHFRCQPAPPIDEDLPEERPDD
Sequence of human Adenosine A2b receptor (P29275 whole entry): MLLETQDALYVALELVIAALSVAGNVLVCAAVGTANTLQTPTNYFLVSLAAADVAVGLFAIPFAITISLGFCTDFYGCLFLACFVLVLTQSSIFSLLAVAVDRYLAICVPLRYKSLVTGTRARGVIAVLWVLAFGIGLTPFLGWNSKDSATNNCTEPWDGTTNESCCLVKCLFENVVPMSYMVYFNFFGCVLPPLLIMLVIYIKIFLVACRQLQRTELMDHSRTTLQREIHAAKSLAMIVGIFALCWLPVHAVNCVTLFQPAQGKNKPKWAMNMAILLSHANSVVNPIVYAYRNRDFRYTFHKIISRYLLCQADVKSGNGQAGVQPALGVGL
Sequence of human Adenosine A3 receptor (P0DMS8 whole entry): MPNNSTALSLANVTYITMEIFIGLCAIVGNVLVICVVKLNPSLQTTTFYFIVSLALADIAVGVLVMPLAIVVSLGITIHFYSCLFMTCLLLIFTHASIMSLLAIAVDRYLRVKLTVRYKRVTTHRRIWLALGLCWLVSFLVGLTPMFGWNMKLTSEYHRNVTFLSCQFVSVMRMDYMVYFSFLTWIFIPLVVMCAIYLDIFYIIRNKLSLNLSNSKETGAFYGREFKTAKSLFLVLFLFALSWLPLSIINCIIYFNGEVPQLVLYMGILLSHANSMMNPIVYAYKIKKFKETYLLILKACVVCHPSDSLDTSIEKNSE
Sequence of human Adenosine A2a receptor (P29274 whole entry): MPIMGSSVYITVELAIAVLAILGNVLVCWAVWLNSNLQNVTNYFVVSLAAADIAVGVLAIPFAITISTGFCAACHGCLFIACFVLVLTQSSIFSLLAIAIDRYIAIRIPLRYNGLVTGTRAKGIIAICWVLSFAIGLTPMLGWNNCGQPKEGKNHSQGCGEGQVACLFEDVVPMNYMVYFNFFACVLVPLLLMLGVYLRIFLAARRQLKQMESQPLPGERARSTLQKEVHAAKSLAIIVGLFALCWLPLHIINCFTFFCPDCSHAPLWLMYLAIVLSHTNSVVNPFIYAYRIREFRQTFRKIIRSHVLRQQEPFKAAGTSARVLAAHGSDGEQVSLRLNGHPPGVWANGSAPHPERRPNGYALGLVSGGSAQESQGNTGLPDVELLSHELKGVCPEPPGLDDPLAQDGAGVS

Ki [1] [nM] | Ki [2] [nM] | IC50 [3] [nM] | Ki [4] [nM] | IC50 [5] [nM] | Ki [6] [nM] | Compound | IC50 (human PBMCs) [nM]
0.21 | 1560 | 20 | 3.9 | 19 | 29 | COCc1cc(-c2sc(NC(=O)N3CC4(COC4)C3)nc2-c2cccc(C#N)c2)cc(C)n1 [Example 21, N-[4-(3-Cyanophenyl)-5-[2-(methoxymethyl)-6-methyl-4-pyridyl]thiazol-2-yl]-2-oxa-6-azaspiro[3.3]heptane-6-carboxamide] | –
0.16 | 1840 | 20 | 5.7 | 182 | 9 | CC(C)(O)c1cc(-c2sc(NC(=O)N3CC4(COC4)C3)nc2-c2cccc(C#N)c2)cc(Cl)n1 [Example 23, N-[5-[2-Chloro-6-(1-hydroxy-1-methyl-ethyl)-4-pyridyl]-4-(3-cyanophenyl)thiazol-2-yl]-2-oxa-6-azaspiro[3.3]heptane-6-carboxamide] | –
0.24 | 456 | 50 | 1.2 | 17 | 38 | N#Cc1cccc(-c2nc(NC(=O)N3CC4(COC4)C3)sc2-c2cc(CO)nc(C(F)(F)F)c2)c1 [Example 26, N-[4-(3-Cyanophenyl)-5-[2-(hydroxymethyl)-6-(trifluoromethyl)-4-pyridyl]thiazol-2-yl]-2-oxa-6-azaspiro[3.3]heptane-6-carboxamide] | –
0.54 | 313 | 80 | 1.2 | 10 | 37 | Cc1cc(-c2sc(NC(=O)N3CC[C@@](C)(C#N)C3)nc2-c2cccc(C#N)c2)cc(C)n1 [Example 27a, (3R)-3-Cyano-N-[4-(3-cyanophenyl)-5-(2,6-dimethyl-4-pyridyl)thiazol-2-yl]-3-methyl-pyrrolidine-1-carboxamide] | –

The next lines start with the compound.

Compound | Ki [1] [nM] | Ki [2] [nM] | IC50 [3] [nM] | Ki [4] [nM] | IC50 [5] [nM] | Ki [6] [nM] | IC50 (human PBMCs) [nM]
Cc1cc(-c2sc(NC(=O)N3CCN(C)CC3)nc2-c2cccc(C#N)c2)cc(Cl)n1 [Example 3.6] | 0.64 | 481 | 990 | 1.5 | 51 | 88 | 7.5
Cc1cc(-c2sc(NC(=O)N3CCC4(CC3)CNC(=O)O4)nc2-c2cccc(C#N)c2)cc(C)n1 [Example 6.56, N-[4-(3-Cyanophenyl)-5-(2,6-dimethyl-4-pyridyl)thiazol-2-yl]-2-oxo-1-oxa-3,8-diazaspiro[4.5]decane-8-carboxamide] | – | – | 70 | – | 7 | – | 3.5
Cc1cc(-c2sc(NC(=O)N3CC(C)(C#N)C3)nc2-c2cccc(C#N)c2)c(F)c(C)n1 [Example 6.68, 3-Cyano-N-[4-(3-cyanophenyl)-5-(3-fluoro-2,6-dimethyl-4-pyridyl)thiazol-2-yl]-3-methyl-azetidine-1-carboxamide] | – | – | 50 | – | 3 | – | 3.1
Cc1cc(-c2sc(NC(=O)N3CCC4(CC3)CNC4=O)nc2-c2cccc(C#N)c2)c(F)c(C)n1 [Example 6.69, N-[4-(3-Cyanophenyl)-5-(3-fluoro-2,6-dimethyl-4-pyridyl)thiazol-2-yl]-3-oxo-2,7-diazaspiro[3.5]nonane-7-carboxamide] | – | – | 430 | – | 3 | – | 10.9
Cc1cc(-c2sc(NC(=O)N3CC4(COC4)C3)nc2-c2cccc(C#N)c2C)cc(C)n1 [Example 6.79, N-[4-(3-Cyano-2-methyl-phenyl)-5-(2,6-dimethyl-4-pyridyl)thiazol-2-yl]-2-oxa-6-azaspiro[3.3]heptane-6-carboxamide] | – | – | 350 | – | 83 | – | 14.5
Cc1cc(-c2sc(NC(=O)N3CCC4(CNCCO4)C3)nc2-c2cccc(C#N)c2)cc(C)n1 (stereo not shown) [Example 13.12, N-[4-(3-Cyanophenyl)-5-(2,6-dimethyl-4-pyridyl)thiazol-2-yl]-6-oxa-2,9-diazaspiro[4.5]decane-2-carboxamide] | 0.84 | 426 | 70 | 4.6 | 73 | 41 | –
